Data taken from ChEMBL document CHEMBL3588817, “Discovery of 4,5,6,7-Tetrahydrobenzo[1,2-d]thiazoles as Novel DNA Gyrase Inhibitors Targeting the ATP-Binding Site” (J Med Chem, 2015).
≈ marks a conversion by molar mass, not a printed value.

Legend:
[1] = Inhibition of Escherichia coli DNA Gyrase ATPase activity assessed as reduction in conversion of NADH to NAD+ using linear pBR322 substrate
Staphylococcus aureus [2] = assay: Antibacterial activity against Staphylococcus aureus 25923 assessed as inhibition of microbial growth at 50 uM by broth microdilution method; format: functional; settings: read-out: GI
Enterococcus faecalis [3] = assay: Antibacterial activity against Enterococcus faecalis ATCC 29212 assessed as inhibition of microbial growth by broth microdilution method; format: functional
Escherichia coli [4] = assay: Antibacterial activity against efflux deficient Escherichia coli tolC::Tn10 lacking functional tolC gene by broth microdilution method
Enterococcus faecalis [5] = assay: Antibacterial activity against Enterococcus faecalis ATCC 29212 assessed as inhibition of microbial growth at 50 uM by broth microdilution method; format: functional; settings: read-out: GI
DNA gyrase [6] = biological target: T1, DNA gyrase (Escherichia coli, UniProt P0AES4+P0AES6); assay: Inhibition of Escherichia coli DNA gyrase using relaxed pNO1 plasmid and biotinylated oligonucelotide incubated for 30 mins by fluorescence based DNA super-coiling assay; format: protein-complex assay
Escherichia coli [7] = assay: Antibacterial activity against wild type Escherichia coli ATCC 25922 by broth microdilution method; format: functional
Pseudomonas aeruginosa [8] = assay: Antibacterial activity against Pseudomonas aeruginosa ATCC 27853 assessed as inhibition of microbial growth by broth microdilution method; format: functional
Pseudomonas aeruginosa [9] = assay: Antibacterial activity against Pseudomonas aeruginosa ATCC 27853 assessed as inhibition of microbial growth at 50 uM by broth microdilution method; format: functional; settings: read-out: GI
Escherichia coli [10] = assay: Antibacterial activity against Escherichia coli imp4213::Tn10 by broth microdilution method; format: functional
Escherichia coli [11] = assay: Antibacterial activity against wild type Escherichia coli ATCC 25922 assessed as inhibition of microbial growth by broth microdilution method; format: functional
DNA gyrase [12] = biological target: DNA gyrase (Staphylococcus aureus, UniProt P0A0K8+P20831); assay: Inhibition of Staphylococcus aureus DNA gyrase using relaxed pNO1 plasmid and biotinylated oligonucelotide incubated for 30 mins by fluorescence based DNA super-coiling assay; format: protein-complex assay
Sequence of DNA gyrase (Staphylococcus aureus, UniProt P0A0K8+P20831) (P0A0K8 whole entry): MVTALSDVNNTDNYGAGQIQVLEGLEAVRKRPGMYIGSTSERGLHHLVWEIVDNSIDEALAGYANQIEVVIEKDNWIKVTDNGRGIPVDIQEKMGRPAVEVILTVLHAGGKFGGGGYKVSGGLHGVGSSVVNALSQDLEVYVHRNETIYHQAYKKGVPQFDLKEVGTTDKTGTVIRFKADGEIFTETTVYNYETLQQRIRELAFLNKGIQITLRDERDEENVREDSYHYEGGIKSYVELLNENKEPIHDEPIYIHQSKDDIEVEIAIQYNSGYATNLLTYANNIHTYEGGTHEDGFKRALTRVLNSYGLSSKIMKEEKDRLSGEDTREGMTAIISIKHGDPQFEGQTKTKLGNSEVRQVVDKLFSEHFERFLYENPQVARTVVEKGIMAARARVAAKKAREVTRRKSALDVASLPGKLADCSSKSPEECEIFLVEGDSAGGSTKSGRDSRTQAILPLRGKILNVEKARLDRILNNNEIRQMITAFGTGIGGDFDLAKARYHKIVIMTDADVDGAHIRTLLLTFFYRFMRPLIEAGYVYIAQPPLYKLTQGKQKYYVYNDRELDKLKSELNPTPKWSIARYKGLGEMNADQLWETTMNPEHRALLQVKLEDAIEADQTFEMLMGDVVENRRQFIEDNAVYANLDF
Sequence of DNA gyrase (Staphylococcus aureus, UniProt P0A0K8+P20831) (P20831 whole entry): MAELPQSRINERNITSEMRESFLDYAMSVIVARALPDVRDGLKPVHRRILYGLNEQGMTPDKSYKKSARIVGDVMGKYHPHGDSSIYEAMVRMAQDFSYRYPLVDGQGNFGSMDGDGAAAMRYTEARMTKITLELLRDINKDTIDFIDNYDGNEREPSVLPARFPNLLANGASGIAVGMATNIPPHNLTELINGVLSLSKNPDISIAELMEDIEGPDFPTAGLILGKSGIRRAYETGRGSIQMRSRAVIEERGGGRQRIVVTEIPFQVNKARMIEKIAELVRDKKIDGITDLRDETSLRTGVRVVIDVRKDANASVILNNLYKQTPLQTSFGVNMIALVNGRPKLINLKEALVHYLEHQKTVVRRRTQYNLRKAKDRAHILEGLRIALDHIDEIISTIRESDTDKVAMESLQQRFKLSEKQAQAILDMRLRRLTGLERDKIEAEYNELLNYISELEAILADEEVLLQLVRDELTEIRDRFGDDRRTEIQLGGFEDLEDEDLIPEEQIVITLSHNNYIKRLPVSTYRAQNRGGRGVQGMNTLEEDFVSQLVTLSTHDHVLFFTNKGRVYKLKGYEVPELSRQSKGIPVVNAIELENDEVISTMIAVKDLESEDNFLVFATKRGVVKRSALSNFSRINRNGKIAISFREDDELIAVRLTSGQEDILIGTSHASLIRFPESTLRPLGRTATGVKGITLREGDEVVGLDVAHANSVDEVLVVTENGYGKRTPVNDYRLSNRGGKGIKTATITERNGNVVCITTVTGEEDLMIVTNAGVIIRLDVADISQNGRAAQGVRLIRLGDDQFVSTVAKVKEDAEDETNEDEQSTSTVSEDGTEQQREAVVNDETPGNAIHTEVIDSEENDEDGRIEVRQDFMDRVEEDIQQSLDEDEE

Staphylococcus aureus [13] = assay: Antibacterial activity against Staphylococcus aureus 25923 assessed as inhibition of microbial growth by broth microdilution method; format: functional
Escherichia coli [14] = assay: Antibacterial activity against wild type Escherichia coli ATCC 25922 assessed as inhibition of microbial growth at 50 uM by broth microdilution method; format: functional; settings: read-out: GI
Topoisomerase IV = Topoisomerase IV (Staphylococcus aureus, UniProt P0C1S7+P0C1U9); assay: Inhibition of Staphylococcus aureus DNA topoisomerase 4 using relaxed pNO1 plasmid and biotinylated oligonucelotide incubated for 30 mins by fluorescence based DNA relaxation assay; format: protein-complex assay
Sequence of Topoisomerase IV (P0C1U9 whole entry): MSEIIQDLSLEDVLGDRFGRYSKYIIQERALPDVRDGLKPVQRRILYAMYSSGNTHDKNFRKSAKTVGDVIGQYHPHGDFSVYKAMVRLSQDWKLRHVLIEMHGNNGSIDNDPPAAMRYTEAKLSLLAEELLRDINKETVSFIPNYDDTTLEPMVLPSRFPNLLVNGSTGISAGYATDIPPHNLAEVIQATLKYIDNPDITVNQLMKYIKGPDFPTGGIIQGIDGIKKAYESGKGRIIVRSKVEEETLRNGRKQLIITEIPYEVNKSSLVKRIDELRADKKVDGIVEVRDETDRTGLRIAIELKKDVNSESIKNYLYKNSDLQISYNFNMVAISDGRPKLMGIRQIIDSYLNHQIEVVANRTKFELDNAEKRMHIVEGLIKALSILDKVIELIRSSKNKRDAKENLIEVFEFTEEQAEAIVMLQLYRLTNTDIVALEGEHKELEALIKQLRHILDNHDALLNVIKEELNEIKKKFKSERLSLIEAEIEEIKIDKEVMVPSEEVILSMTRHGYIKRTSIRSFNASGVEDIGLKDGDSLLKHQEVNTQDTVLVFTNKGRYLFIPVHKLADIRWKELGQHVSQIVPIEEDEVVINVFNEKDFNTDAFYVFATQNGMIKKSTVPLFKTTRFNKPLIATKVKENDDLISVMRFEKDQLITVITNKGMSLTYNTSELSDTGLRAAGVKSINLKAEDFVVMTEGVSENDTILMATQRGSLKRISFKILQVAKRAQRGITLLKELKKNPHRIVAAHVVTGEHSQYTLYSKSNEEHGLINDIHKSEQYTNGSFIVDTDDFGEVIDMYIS
Sequence of Topoisomerase IV (P0C1S7 whole entry): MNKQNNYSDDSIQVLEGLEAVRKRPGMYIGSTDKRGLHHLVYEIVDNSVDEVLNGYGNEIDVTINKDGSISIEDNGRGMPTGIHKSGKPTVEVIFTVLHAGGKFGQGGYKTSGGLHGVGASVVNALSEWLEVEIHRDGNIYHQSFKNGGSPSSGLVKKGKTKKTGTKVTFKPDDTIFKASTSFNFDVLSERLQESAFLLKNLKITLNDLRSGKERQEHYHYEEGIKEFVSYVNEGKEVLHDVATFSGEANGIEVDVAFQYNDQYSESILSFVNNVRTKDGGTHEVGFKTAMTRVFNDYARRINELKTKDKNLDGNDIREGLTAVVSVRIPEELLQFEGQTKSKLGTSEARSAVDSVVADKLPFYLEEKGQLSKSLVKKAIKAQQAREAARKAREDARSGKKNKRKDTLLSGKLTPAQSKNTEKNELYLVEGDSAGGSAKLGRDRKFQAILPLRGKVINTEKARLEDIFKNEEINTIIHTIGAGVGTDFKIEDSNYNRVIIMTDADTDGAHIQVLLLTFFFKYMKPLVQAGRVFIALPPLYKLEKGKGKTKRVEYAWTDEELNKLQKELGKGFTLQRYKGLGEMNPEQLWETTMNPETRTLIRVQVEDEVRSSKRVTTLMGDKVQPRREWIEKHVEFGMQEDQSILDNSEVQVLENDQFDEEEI

Escherichia coli [15] = assay: Inhibition of Escherichia coli DNA topoisomerase 4 assessed as residual enzyme activity at 100 uM using relaxed pNO1 plasmid and biotinylated oligonucelotide incubated for 30 mins by fluorescence based DNA relaxation assay
[16] = biological target: Topoisomerase IV (Staphylococcus aureus) (UniProt P0C1U9+P0C1S7); assay: Inhibition of Staphylococcus aureus DNA topoisomerase 4 assessed as residual enzyme activity at 100 uM using relaxed pNO1 plasmid and biotinylated oligonucelotide incubated for 30 mins by fluorescence based DNA relaxation assay; format: protein-complex assay
[17] = biological target: DNA gyrase (Staphylococcus aureus) (UniProt P0A0K8+P20831); assay: Inhibition of Staphylococcus aureus DNA gyrase assessed as residual enzyme activity at 100 uM using relaxed pNO1 plasmid and biotinylated oligonucelotide incubated for 30 mins by fluorescence based DNA super-coiling assay; format: protein-complex assay
Sequence of DNA gyrase (Staphylococcus aureus) (P0A0K8 2-644 limits assumed): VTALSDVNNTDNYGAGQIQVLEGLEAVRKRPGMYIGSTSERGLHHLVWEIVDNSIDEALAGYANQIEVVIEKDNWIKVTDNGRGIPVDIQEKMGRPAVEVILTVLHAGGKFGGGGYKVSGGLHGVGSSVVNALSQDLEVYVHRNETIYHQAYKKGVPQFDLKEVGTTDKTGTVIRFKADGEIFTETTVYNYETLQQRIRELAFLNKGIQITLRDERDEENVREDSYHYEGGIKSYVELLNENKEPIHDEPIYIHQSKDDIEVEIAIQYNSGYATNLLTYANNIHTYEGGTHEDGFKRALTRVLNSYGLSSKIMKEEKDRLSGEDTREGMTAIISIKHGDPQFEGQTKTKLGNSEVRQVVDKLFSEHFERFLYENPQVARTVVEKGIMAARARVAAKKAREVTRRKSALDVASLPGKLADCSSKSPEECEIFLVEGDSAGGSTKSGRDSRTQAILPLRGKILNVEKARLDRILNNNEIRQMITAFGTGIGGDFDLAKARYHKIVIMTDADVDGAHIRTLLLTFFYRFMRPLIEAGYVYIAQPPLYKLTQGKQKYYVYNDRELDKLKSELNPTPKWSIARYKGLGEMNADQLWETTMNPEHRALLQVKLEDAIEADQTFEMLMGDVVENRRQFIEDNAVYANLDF
Sequence of DNA gyrase (Staphylococcus aureus) (P20831 whole entry partner, the tested form may be a part): as the sequence (P20831 whole entry) above

DNA gyrase [18] = biological target: T1, DNA gyrase; assay: Binding affinity to Escherichia coli DNA gyrase subunit B N-terminal 24 kDa domain by SPR assay; format: protein-complex assay
[19] = Inhibition of Escherichia coli DNA topoisomerase 4 using relaxed pNO1 plasmid and biotinylated oligonucelotide incubated for 30 mins by fluorescence based DNA relaxation assay

Compound	IC50 [1]	inhibition of growth at 50 µM (Staphylococcus aureus [2])	MIC (Enterococcus faecalis [3])	MIC (Escherichia coli [4])	inhibition of growth at 50 µM (Enterococcus faecalis [5])	IC50 (DNA gyrase [6])	MIC (Escherichia coli [7])	MIC (Pseudomonas aeruginosa [8])	inhibition of growth at 50 µM (Pseudomonas aeruginosa [9])	MIC (Escherichia coli [10])	MIC (Escherichia coli [11])	IC50 (DNA gyrase [12])	MIC (Staphylococcus aureus [13])	inhibition of growth at 50 µM (Escherichia coli [14])	IC50 (Topoisomerase IV)	Activity (Escherichia coli [15])	Activity [16]	Activity [17]	Kd (DNA gyrase [18])	IC50 [19]
CCOC(=O)C(=O)Nc1nc2c(s1)C[C@@H](NC(=O)c1cc(Br)c(Br)[nH]1)CC2	0.57 µM	< 50%	> 125 µM	128 µg/mL (≈ 246 µM)	< 50%	0.1 µM	> 256 µg/mL	> 125 µM	< 50%	> 256 µg/mL	> 125 µM	80 µM	> 125 µM	< 50%	180 µM	74%				
O=C(O)CC(=O)Nc1nc2c(s1)C[C@@H](NC(=O)c1cc3ccccc3[nH]1)CC2	22 µM	< 50%	> 125 µM	> 256 µg/mL	< 50%	7.6 µM	> 256 µg/mL	> 125 µM	< 50%	> 256 µg/mL	> 125 µM		> 125 µM	< 50%		96%	103%	117%		
COC(=O)CC(=O)Nc1nc2c(s1)C[C@@H](NC(=O)c1cc(Br)c(Br)[nH]1)CC2		< 50%	> 125 µM	16 µg/mL (≈ 30.8 µM)	< 50%	0.096 µM	> 256 µg/mL	> 125 µM	< 50%	32 µg/mL (≈ 61.5 µM)	> 125 µM	110 µM	> 125 µM	< 50%			74%		0.072 µM	86 µM
O=C(O)CC(=O)Nc1nc2c(s1)C[C@@H](NC(=O)c1cc(Cl)c(Cl)[nH]1)CC2	0.66 µM	< 50%	> 125 µM	> 256 µg/mL	< 50%	0.13 µM	> 256 µg/mL	> 125 µM	< 50%	> 256 µg/mL	> 125 µM		> 125 µM	< 50%		98%	102%	87%	0.049 µM	
COC(=O)CCC(=O)Nc1nc2c(s1)C[C@@H](NC(=O)c1cc(Br)c(Br)[nH]1)CC2		< 50%	> 125 µM	32 µg/mL (≈ 59.9 µM)	< 50%	0.093 µM	> 256 µg/mL	> 125 µM	< 50%	64 µg/mL (≈ 120 µM)	> 125 µM		> 125 µM	< 50%		97%	99%	113%	0.15 µM	
CCOC(=O)C(=O)Nc1nc2c(s1)C[C@@H](NC(=O)c1cc(Cl)c(Cl)[nH]1)CC2		< 50%	> 125 µM	256 µg/mL (≈ 594 µM)	< 50%	0.4 µM	> 256 µg/mL	> 125 µM	< 50%	> 256 µg/mL	> 125 µM	320 µM	> 125 µM	< 50%	290 µM					300 µM
O=C(O)C(=O)Nc1nc2c(s1)C[C@@H](NC(=O)c1cc(Cl)c(Cl)[nH]1)CC2		< 50%	> 125 µM	> 256 µg/mL	< 50%	0.59 µM	> 256 µg/mL	> 125 µM	< 50%	> 256 µg/mL	> 125 µM	300 µM	> 125 µM	< 50%	170 µM	82%				
O=C(O)CCC(=O)Nc1nc2c(s1)C[C@@H](NC(=O)c1cc(Br)c(Br)[nH]1)CC2		< 50%	> 125 µM	256 µg/mL (≈ 492 µM)	< 50%	0.049 µM	> 256 µg/mL	> 125 µM	< 50%	> 256 µg/mL	> 125 µM	270 µM	> 125 µM	< 50%	110 µM	90%			0.01 µM	
